In US7781418B2, “Composition for treating bone disorders” (Isis Innovation Ltd., priority 2006, dated 2010):
Structures can show the parent of a compound that is named as a salt.

What was measured:
[1] = target: T1, farnesyl pyrophosphate synthase (FPPS) (Homo sapiens, UniProt P14324); test: farnesyl pyrophosphate synthase (FPPS) inhibition assay; assay type: biochemical
T1 sequence (P14324 1-419): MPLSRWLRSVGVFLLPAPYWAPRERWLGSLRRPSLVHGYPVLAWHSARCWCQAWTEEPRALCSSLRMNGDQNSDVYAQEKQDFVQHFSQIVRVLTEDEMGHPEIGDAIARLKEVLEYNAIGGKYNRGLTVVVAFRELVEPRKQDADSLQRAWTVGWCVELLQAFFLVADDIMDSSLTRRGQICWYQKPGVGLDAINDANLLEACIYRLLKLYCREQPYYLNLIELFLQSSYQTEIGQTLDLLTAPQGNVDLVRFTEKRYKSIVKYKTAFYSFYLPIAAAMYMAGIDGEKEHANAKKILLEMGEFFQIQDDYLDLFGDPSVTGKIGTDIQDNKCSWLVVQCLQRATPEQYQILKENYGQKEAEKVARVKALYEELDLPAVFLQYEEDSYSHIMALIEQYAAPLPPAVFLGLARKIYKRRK
Procedure: The activity of the racemic mixture, is approximately 42 nM.

[2] = tested on: bone resorption and mineralization; test: Schenk Model: in vivo bone resorption inhibition and mineralization inhibition, lowest effective dose; settings: for Lowest Effective Dose, Bone Mineral Density (BMD) / Lowest Effective Dose, Bone Mineral Content (BMC): head-to-head comparison of all three compounds; for Lowest Effective Dose, Bone Mineral Content (BMC): highest dose tested 0.1

SMILES | IC50 [1] [nM] | Lowest Effective Dose, Bone Mineral Density (BMD) [2] [mg P/kg] | Lowest Effective Dose, Bone Mineral Content (BMC) [2] | activity in the Schenk assay relative to enantiomer (1S,6R) and racemic mixture ([2]; compared with (1S,6R) enantiomer and corresponding racemic mixture)
O=P(O)(O)C1(P(=O)(O)O)C[C@H]2CCCN[C@H]2C1 [1S,6R Isomer] | 359 | 0.1 | >0.1^2^ mg P/kg | –
O=P(O)(O)C1(P(=O)(O)O)CC2CCCNC2C1 (racemic) [Racemic Mixture] | ~42 | 0.03 | 0.03 mg P/kg | –
O=P(O)(O)C1(P(=O)(O)O)C[C@@H]2CCCN[C@@H]2C1 [1R,6S Isomer, (1R,6S)-2-Azabicyclo[4.3.0]nonane-8,8-diphosphonic acid hydrochloride salt] | 15 | 0.01 | 0.01 mg P/kg | more active
